“Also recorded” adds a separate entry of the source.
Tests used:
LINE-1 retrotransposon = assay: LINE-1 DNA methylation assay in A549 cells; assay type: cell-based, human; conditions: A 0.5 μg/ml, Z 350 μM
Procedure: (§1) For the A549 human cancer cell line cells were grown in medium without treatment or supplemented with either Z (350 μM) or A (0.5 μg/ml), DNA was extracted by using the QiaAmp DNA mini Kit (Qiagen, France). Next, global DNA methylation was estimated by quantifying the presence of 5-methylcytosine 5-mC DNA ELISA Kit (Zymo Research) according to the manufacturers's instructions. DNA methylation at the LINE-1 transposons were assessed with the Global DNA Methylation Assay—LINE-1 kit (Active Motif).

ONSEN retrotransposon = assay: ONSEN extrachromosomal DNA accumulation by qPCR in seedlings after heat stress; assay type: in vivo, Arabidopsis thaliana; conditions: HS
Procedure: After stratification for two days at 4° C., Arabidopsis thaliana plants (accession Col-0) were grown on sterile ½ MS medium with 1% sucrose and a pH of 5.8 (control medium) under long day conditions (16 h light) at 24° C. (day) and 22° C. (night), respectively. Oryza sativa plants were grown on sterile ½ MS medium with 1% sucrose and a pH of 5.8 (control medium) 16 h at 28° C. (day) and 27° C. (night), respectively.
The induction of epigenetic changes and the activation and stable integration of transposable elements in Arabidopsis seedlings was enhanced by germinating and growing them on ½ MS-medium that contained zebularine (final concentration: 10-40 μM), α-amanitin (final concentration: 0.005-20 μg/ml) or a combination of both chemicals (inductive media).
In order to trigger the transposition of the heat-responsive retrotransposon ONSEN, seven days old seedlings were exposed to a cold shock for 24 h at 6° C. followed by a heat-stress for 24 h at 37° C. (heat stress, HS) under controlled conditions in a growth chamber (Sanyo). Control plants were transferred back to longday-conditions 24° C. (day) and 22° C. (night) after the cold treatment at 6° C. for 24 h (CS, control stress, according to Ito et al., 2011).
Total DNA from seedlings and adult plants was isolated using a DNeasy Plant Mini Kit (QIAGEN).
In preparation to the measurement of extrachromosomal DNA copies of ONSEN in CS/HS and untreated/treated seedlings, roots were dissected directly after the heat stress and plants were immediately frozen in liquid nitrogen until DNA extraction.
The copy numbers of ONSEN were determined with qPCRs on total DNA using a TaqMan master mix (Life Technologies) in a final volume of 10 μl in the Light-Cycler 480 (Roche). ACTOPIA17 copy number was measured by quantitative PCR (qPCR) in a Light-Cycler 480 (Roche), using […] Master Mix. Actin2 (At3g18780) served as a standard gene for normalization.

ONSEN LTR = assay: DNA methylation analysis (DdeI chop PCR, bisulfite sequencing) at the ONSEN LTR; assay type: in vivo, Arabidopsis thaliana
Procedure: 20 ng of total genomic DNA isolated from Arabidopsis seedlings was digested with the methylation sensitive restriction enzyme, Dde1 (NEB) at 37° C. over night. Following heat inactivation at 60° C. for 20 min, the digested DNA was used as a template for the chopPCR. Actin2 served as a control for the digest. Undigested DNA was used as a loading control. PCR products were separated on a 1% agarose gel and stained with Midori Green.

[1] = tested on: A549 human cancer cell line; assay: Global DNA methylation (5-mC DNA ELISA) in A549 cells; assay type: cell-based; conditions: A 0.5 μg/ml, Z 350 μM
Procedure: as §1

SMILES | reduction of DNA methylation at LINE-1 (LINE-1 retrotransposon) [%] | ONSEN copy number at different α-amanitin concentrations (ONSEN retrotransposon; Col wildtype seedlings, α-amanitin in different concentrations in μg/ml) | ONSEN ecDNA accumulation in dcl2/3/4 triple mutant (ONSEN retrotransposon; dcl2/3/4 triple-mutant grown on A) | ONSEN ecDNA accumulation in rdr6 mutant (ONSEN retrotransposon; rdr6 plants grown on A) | ONSEN ecDNA accumulation after heat stress (ONSEN retrotransposon; wild-type seedlings, A 5 μg/ml, Z 40 μM) | DNA methylation at the ONSEN LTR at higher A concentration (ONSEN LTR; WT (Col) seedlings, A 20 μg/ml, Z 10 μM) | CHH methylation at the ONSEN LTR (ONSEN LTR; after CS, A 5 μg/ml, Z 40 μM) | reduction of global DNA methylation [1] [%]
CC[C@H](C)[C@@H]1NC(=O)CNC(=O)[C@@H]2Cc3c([nH]c4cc(O)ccc34)[S+]([O-])C[C@@H](NC(=O)CNC1=O)C(=O)N[C@@H](CC(N)=O)C(=O)N1C[C@H](O)C[C@H]1C(=O)N[C@@H]([C@@H](C)[C@@H](O)CO)C(=O)N2 (stereo partly drawn) [A, alpha-amanitin] | 40 | dose dependent accumulation | no effect | still enhancing ecDNA accumulation | increase in ONSEN ecDNA | reduction in DNA-methylation; also recorded: strongly reduced DNA methylation | reduced CHH methylation levels | 40
O=c1ncccn1[C@@H]1O[C@H](CO)[C@@H](O)[C@H]1O [Z, zebularine] | 20 |  |  |  |  |  |  | 

From US12144299B2, “Mobilisation of transposable elements to enhance genetic and epigenetic variability in a population” (priority 2015, dated 2024)
